Source: PMC11840258, “Detection of chimeric alpha-defensin transcripts and peptides in mouse Paneth cells” (Frontiers in Immunology, 2025)
No end group written: not given here.

How the values were obtained:
Format in all cases: cell-based
Escherichia coli = test: Anti-bacterial activity assay (colony counts after peptide titration); conditions: 1U = dose needed to kill 50% of the bacteria (IC50); peptide 20, 10, 4, 2 µg/ml; 4 h at 37°C; colonies counted on LB agar; logistic 4 parameter model (drda); isolate from mouse ileum; means of two independent experiments
Method: (§1) Antimicrobial essays for the synthetic proteins were performed against Escherichia coli, Staphylococcus nepalensis, Enterococcus fecalis and Citrobacter rodentium. The first three species are common in small intestine in mice (where Paneth cells are relevant), while C. rodentium is a common pathogen in mice. To obtain cultures of the first three species, C57BL/6J mice were euthanized, ileum content harvested and diluted in sterile PBS and plated out on standard LB plates, overnight. Colonies were picked and species identified using Maldi-Toff [as previously described ([19])]. The relevant pure colonies of these three species were then grown on plates, identified once again, and grown in liquid LB and frozen at -80°C. The C. rodentium culture was strain ICC 169 and was obtained from ATCC.
(§2) Bacteria were grown in LB broth at 37°C in an incubation shaker (100rpm) until and OD between 0.8-1. For each peptide, a dilution set (800 µl/peptide) derived from the stock solution was prepared in such manner to obtain a final volume of 1 ml with peptide concentrations of 20 µg/ml, 10 µg/ml, 4 µg/ml and 2 µg/ml. Bacteria grown in LB broth where diluted to OD 0.2. For each bacterium, 200 µl of the OD 0.2 solution was added to each of the peptide dilutions and incubated at 37°C for four hours at 55 rpm. After incubation 100 µl of the incubated mixture was plated out on LB agar plates at two concentrations: undiluted and 1:10 diluted. The plates were incubated at 37°C overnight after which colonies per plate were counted and tabulated. The highest plated out concentration that still had individually distinguishable colonies was used.
(§3) The R package “drda” ([20]) was used to perform a dose-response analysis using the logistic 4 parameter model. The concentration that inhibits growth by 50%, IC50, was obtained from the models for each combination of bacterium and peptide and converted into per peptide specific activity.

[1] = system: Staphylococcus nepalensis; test: as above; conditions: 1U = dose needed to kill 50% of the bacteria (IC50); peptide 20, 10, 4, 2 µg/ml; 4 h at 37°C; colonies counted on LB agar; logistic 4 parameter model (drda); isolate from mouse ileum; means of two independent experiments
Method: as §1, §2, §3

Enterococcus fecalis = test: as above; conditions: 1U = dose needed to kill 50% of the bacteria (IC50); peptide 20, 10, 4, 2 µg/ml; 4 h at 37°C; colonies counted on LB agar; logistic 4 parameter model (drda); isolate from mouse ileum; means of two independent experiments
Method: as §1, §2, §3

[2] = system: Citrobacter rodentium strain ICC 169; test: as above; conditions: 1U = dose needed to kill 50% of the bacteria (IC50), peptide 20, 10, 4, 2 µg/ml, 4 h at 37°C, colonies counted on LB agar, logistic 4 parameter model (drda), means of two independent experiments
Method: as §1, §2, §3

[3] = system: E. coli, C. rodentium, S. nepalensis, E. fecalis; test: Anti-bacterial activity assay, over the four bacterial species; conditions: 1U = dose needed to kill 50% of the bacteria (IC50)
Method: as §1
as §2, with “After incubation 100 µl of the incubated mixture was plated out on LB agar plates at two concentrations: undiluted and 1:10 diluted.” left out, “The highest plated out concentration that still had individually distinguishable colonies was used.” left out

Substance: Defa24: custom-synthesized mature peptide of parental mouse α-defensin Defa24 (LRDLVCYCRARGCKGRERMNGTCSKGHLLYMLCC; ends and bridges not checked; cysteine pairing not given here; UniProt Q5G865 59-92, looked up)
- Specific activity of cell killing, E. coli (Escherichia coli): 122 U/mg
- Specific activity of cell killing, S. nepalensis [1]: 8 U/mg
- Specific activity of cell killing, E. fecalis (Enterococcus fecalis): 23 U/mg
- Specific activity of cell killing, C. rodentium [2]: 77 U/mg
- Specific activity of cell killing, Mean [3]: 58 U/mg

Substance: Defa31: custom-synthesized mature peptide of parental mouse α-defensin Defa31 (PRCPPCPRCSWCPRCPTCPRCNCNPK; ends and bridges not checked; cysteine pairing not given here; UniProt P50715 66-91, looked up)
- Specific activity of cell killing, E. coli (Escherichia coli): 397 U/mg
- Specific activity of cell killing, S. nepalensis [1]: 437 U/mg
- Specific activity of cell killing, E. fecalis (Enterococcus fecalis): 189 U/mg
- Specific activity of cell killing, C. rodentium [2]: 314 U/mg
- Specific activity of cell killing, Mean [3]: 334 U/mg
